{"source": "paper PMC11873566", "about": "(Acta Pharmaceutica Sinica. B, 2024)", "molecular_target": "alpha-enolase (ENO1) (Homo sapiens, UniProt P06733)", "sequence (P06733 2-434)": "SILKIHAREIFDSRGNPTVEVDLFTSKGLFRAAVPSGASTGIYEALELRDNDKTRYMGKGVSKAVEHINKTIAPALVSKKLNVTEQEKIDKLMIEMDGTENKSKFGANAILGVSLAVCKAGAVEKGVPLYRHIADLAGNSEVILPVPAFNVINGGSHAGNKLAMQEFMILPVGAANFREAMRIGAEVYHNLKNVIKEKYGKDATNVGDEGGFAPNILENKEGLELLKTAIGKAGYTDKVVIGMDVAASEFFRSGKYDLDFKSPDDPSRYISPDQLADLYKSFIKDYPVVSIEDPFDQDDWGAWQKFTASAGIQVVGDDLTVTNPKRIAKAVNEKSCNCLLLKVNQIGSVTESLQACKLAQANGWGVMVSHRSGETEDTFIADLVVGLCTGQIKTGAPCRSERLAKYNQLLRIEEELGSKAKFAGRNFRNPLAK", "experiment": "MST with NT-647-NHS labelled recombinant ENO1", "assay_type": "binding"}
{"compound": "O=c1cc(-c2ccccc2)oc2cc(O)cc(O)c12", "note": "[compound 1, chrysin]", "values": [{"measurement": "Kd", "value": 15, "unit": "µM"}]}
